# Measurements published in patent US20150025119A1, “Release Application for Antihypertensive Agent on Plant Fiber Bundle” (National Tsing Hua University, priority 2013, published 2015).
# Test: Release of Valsartan from plant fiber bundle base (toothpick) in physiological saline, fluorescence analysis
# Type: physicochemical
# Conditions: toothpick impregnated at 10 mg/mL, released in physiological saline for 1, 3, 5, 10 minutes, 38 repetitions, FIG. 4
# Text: Firstly, in step 100, antihypertensive agents are fixed onto a plant fiber bundle base such as a toothpick, i.e., solid antihypertensive agents attached onto the plant fiber bundle base. In this step, the plant fiber bundle base may be impregnated in liquid antihypertensive agents. Because of the physical adsorption properties of plant fiber bundles, the composition of the liquid antihypertensive agents is gradually adsorbed into the plant fiber bundles until the amount of antihypertensive agents on plant fiber bundle base reaches a saturated condition. In one embodiment, the concentration of antihypertensive agents (e.g., Valsartan) in liquid form is 2.5, 5, 8, 10, 20 mg/mL, respectively. Then, the plant fiber bundle base is removed. […] Next, in step 102, fluorescence analysis of the released anti-hypertensive agents is performed. […] Based on this feature, an optical instrument is used for fluorescence analysis of different concentrations of Valsartan affixed to toothpicks. Fluorescence analysis of different concentrations of Valsartan was performed using ImageJ image analysis software. […] An optical instrument is used to collect fluorescence data of Valsartan after release in physiological saline in 38 repetitions of the experiment. […]
smiles,measurement,value
CCCCC(=O)N(Cc1ccc(-c2ccccc2-c2nnn[nH]2)cc1)[C@H](C(=O)O)C(C)C [Valsartan],proportion of release (release percentage) of Valsartan over time,increases until the saturation level is reached
